Assay [1] relates to TPST. The note with it: stomach and liver of ethanol-fed male Sprague-Dawley rats; cited from earlier work.
The test system of assay [2] is Tyrosyl protein sulphotransferase (TPST). Put plainly: TPST activity assay in platelets from normal healthy blood donors (35S transfer from PAPS35 to EAY substrate). It is filed as biochemical, human. To be noted: normal human platelets. How it is done:
The activity of sulphotransferases can be measured by monitoring the transfer of ^35S from the sulphate donor, PAPS^35, to the product, in this case the synthetic tyrosine substrate EAY. This assay uses platelets from control subjects (n=5) and those patients suffering from a particular disorder, selected from autism (n=14), irritable bowel syndrome (n=3) schizophrenia (gluten-sensitive)(n=4), food allergy (gluten, milk) (n=3) and depression (n=2).
Reaction mixtures were incubated for 50 minutes at 37° C. and reactions were stopped by barium acetate. Unreacted sulphate, proteins and nucleotides were precipitated by zinc sulphate and barium hydroxide. Within the reaction there is a positive and negative control. The positive control is termed 100%, and represents the total amount of radioactivity present in the hot PAPS^35 sample. The negative control is the “no-enzyme” reaction, this represents the amount of sulphate transferred to the product when no enzyme is present, i.e. the chemical reaction. The blank for the reaction is made up without PAPS^35 and without enzyme.
10 ml of whole blood was taken from patients and the blood cells removed. The remaining plasma was centrifuged at 8000 g for 5 mins to sediment the platelets. This platelet pellet was resuspended in 5 ml 10 mM phosphate buffered saline (PBS) containing 10 mM EDTA, recentrifuged at 2000 g at 4° C. for 30 min. […] The platelets were sonicated for 12×10 second bursts at 4° C. The platelet sonicates were stored in 1 ml portions at −70° C. prior to use.
Substrate: 10 μl EAY (300 μM; poly (Glu, Ala, Tyr) 6:3:1) was used in each test assay, to give a final concentration in the reaction of 20 μM. This solution was made up in MES reaction buffer.
Reaction mixtures were made up as in the table above. To begin the assay, platelet homogenate (20 μl) and PAPS^35 (20 μl) were added at 30-second intervals to a final volume of 150 μl. The reaction mixture was then incubated at 37° C. for 40 min. The reaction is stopped by the addition of 200 μl-barium acetate (0.1 M) and the tubes were vortexed and placed on ice for […].
Unreacted sulphate was then precipitated by the addition of 0.1 M zinc sulphate (200 μl) and 0.1 M barium hydroxide (200 μl). The tubes were vortexed and centrifuged at 6500 rpm for 3 min.
Repeat step 3. Supernatant (500 μl) was then added to scintillation fluid (3.5 ml) and S^35 was counted in a Phillips scintillation counter.
Various compounds were investigated, including fatty acids, flavonoids and amino acids. […] Compounds were tested at the concentrations shown and were dissolved in buffer where possible or ethanol if not.
In the Example shown in Table 6 and FIG. 6 compounds were all dissolved in DMSO and tested at 25 μM.

For assay [3], the system named is TPST. The note with it: human alcoholics; cited from earlier work.
For assay [4], the system named is TPST. The note with it: PC12 cells; cited from earlier work.

For the compound `CCO` [Ethanol], the “Increase of TPST level” value in the assay on TPST [1] was “over three-fold”. Moreover, the “Effect on TPST activity (in words)” value in assay [2] (Example 2, concentrations as in Table 2) is given as “stimulation of activity”. Besides, the “% Control TPST Activity” value in assay [2] (Table 2, 0.4%) worked out at 177%. The “TPST enzyme activity versus normal individuals” value in the assay on TPST [3] is “two- to three-fold higher”.

Take `[Mn+2]` [Manganese]: the “Effect on TPST activity” value in the assay on TPST [4] was “suppresses TPST activity”.

(Values after US20030194719A1, “Tpst-assay for diagnosis of autism and related disorders” (priority 2000, published 2003).)
